Molecular target: T1, TNF-α (recombinant mouse TNF-α) (Mus musculus, UniProt P06804)
T1 construct: recombinant, purchased from Sigma; amine-coupled to CM5 chip
T1 sequence (P06804 80-235): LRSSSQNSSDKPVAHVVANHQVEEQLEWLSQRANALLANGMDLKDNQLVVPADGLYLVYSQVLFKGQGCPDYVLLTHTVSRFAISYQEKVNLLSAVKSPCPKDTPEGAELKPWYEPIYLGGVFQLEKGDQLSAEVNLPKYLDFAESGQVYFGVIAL
Experiment: SPR (BIAcore T200, TNF-α immobilised on CM5, […] model)
Format: binding

| SMILES | Kd |
| --- | --- |
| O=c1c(O)c(-c2ccc(O)c(O)c2)oc2cc(O)cc(O)c12 [H11, Quercetin] | 35 µM |
| Oc1ccc(CC2NCCc3cc(O)c(O)cc32)cc1 (centres unmarked) [S39, Higenamine] | 67 µM |

From article PMC4837341, “Drug target identification using network analysis: Taking active components in Sini decoction as an example” (Scientific Reports, 2016)
